Assays:
Human PKMYT1 = biological target: T1, Human PKMYT1 (Homo sapiens, UniProt Q99640); assay: PKMYT1 biochemical ADP-Glo enzymatic assay; settings: ADP-Glo
T1 construct: Human PKMYT1 75-362 was cloned as a TEV cleavable 6xHis fusion; 6xHis (TEV cleavable) (cleaved yes); made in house; host or cells: bacterial cells
T1 sequence (Q99640 75-362): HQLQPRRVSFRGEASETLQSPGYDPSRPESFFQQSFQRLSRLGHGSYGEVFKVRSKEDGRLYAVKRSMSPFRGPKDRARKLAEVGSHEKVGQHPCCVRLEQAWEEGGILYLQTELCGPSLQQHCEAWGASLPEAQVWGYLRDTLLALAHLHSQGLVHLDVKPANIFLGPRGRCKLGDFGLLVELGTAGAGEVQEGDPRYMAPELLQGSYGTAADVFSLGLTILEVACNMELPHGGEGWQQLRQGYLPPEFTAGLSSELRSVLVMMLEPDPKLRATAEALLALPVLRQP
Procedure, shortened: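 Compounds were titrated over 10 points (3-fold steps), then 15 nM purified PKMYT1 kinase domain (aa 75-362) and 500 µM ATP were added in pH 7.5 HEPES buffer. After 60 min at 26 °C, remaining ATP was depleted and ADP converted to luminescence for IC50 fitting.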

KYSE-30 cells = assay: Cancer cell line proliferation assay, ATP-based cell viability (Cell Titre Glow), KYSE-30 (normal CCNE1); settings: Homo sapiens, KYSE-30 cells (normal CCNE1), concentration that achieves 50% cell growth proliferation inhibition, read-out: KYSE30 Gl50
Procedure, shortened: (§1)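 GI50 values, the concentrations halving cell growth, were derived from ATP-based luminescence (Cell Titre Glo) after PKMYT1 inhibitor exposure. Cells tested were OVCAR 3, an ovarian line with amplified CCNE1, and KYSE-30, which has normal CCNE1.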

[1] = biological target: T2, Cellular PKMYT1 Biomarker CDK1 pT14 (Homo sapiens, UniProt Q99640); assay: Inhibition of cellular PKMYT1 biomarker CDK1 pT14 in OVCAR 3 cells (immunoblot); assay type: cell-based; settings: 20 hours incubation
T2 construct: read-out CDK1 phospho-T14 immunoblot
T2 sequence (Q99640 1-499): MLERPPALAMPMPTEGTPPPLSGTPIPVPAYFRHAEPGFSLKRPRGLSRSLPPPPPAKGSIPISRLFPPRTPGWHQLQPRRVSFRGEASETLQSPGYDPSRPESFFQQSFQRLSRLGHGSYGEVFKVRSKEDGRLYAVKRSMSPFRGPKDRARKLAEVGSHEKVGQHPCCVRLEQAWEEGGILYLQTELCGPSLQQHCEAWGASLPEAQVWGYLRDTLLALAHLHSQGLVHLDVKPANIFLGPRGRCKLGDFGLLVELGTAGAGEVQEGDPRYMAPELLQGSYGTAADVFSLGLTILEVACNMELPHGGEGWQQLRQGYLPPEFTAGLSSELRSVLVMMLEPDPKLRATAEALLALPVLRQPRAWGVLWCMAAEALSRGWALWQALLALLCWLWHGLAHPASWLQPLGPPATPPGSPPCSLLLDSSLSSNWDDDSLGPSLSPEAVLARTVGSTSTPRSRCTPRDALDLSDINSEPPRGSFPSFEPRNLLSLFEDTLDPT
Procedure, shortened: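 Confluent OVCAR 3 cells treated with a compound concentration range for 20 h at 37 °C. Lysates analysed by automated capillary immunoblot for CDK1 phospho-T14, with vinculin, fluorescence detection; IC50 by regression.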

WEE1 = biological target: T3, WEE1 (Homo sapiens, UniProt P30291); assay: Selectivity versus WEE1 assay (ADP-Glo enzymatic assay); assay type: biochemical; settings: for IC50: ADP-Glo; for PKMYT1 vs. WEE1 selectivity: fold difference in selectivity for PKMYT1 over WEE1
T3 construct: purchased Thermo Fisher PR7373A
T3 sequence (P30291 whole entry): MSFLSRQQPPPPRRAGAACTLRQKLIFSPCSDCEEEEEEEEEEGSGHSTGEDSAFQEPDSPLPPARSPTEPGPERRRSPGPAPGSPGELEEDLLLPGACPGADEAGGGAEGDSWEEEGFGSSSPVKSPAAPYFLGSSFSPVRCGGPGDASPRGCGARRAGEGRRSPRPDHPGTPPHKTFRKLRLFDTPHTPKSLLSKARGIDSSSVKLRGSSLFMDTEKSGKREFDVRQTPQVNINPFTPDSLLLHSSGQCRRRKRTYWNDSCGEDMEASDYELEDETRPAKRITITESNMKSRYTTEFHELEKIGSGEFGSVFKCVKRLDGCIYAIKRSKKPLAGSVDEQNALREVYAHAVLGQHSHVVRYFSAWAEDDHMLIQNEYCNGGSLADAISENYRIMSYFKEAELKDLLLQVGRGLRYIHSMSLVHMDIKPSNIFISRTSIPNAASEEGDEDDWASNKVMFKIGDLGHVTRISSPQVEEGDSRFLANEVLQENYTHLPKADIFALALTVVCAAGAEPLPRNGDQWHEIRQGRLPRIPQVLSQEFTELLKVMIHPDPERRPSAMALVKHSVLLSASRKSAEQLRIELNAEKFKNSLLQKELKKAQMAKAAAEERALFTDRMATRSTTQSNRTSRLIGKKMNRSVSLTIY
Procedure, shortened: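 Compounds were pre-dispensed, enzyme (15 nM final) was added in pH 7.5 HEPES buffer, and ATP ([…]) then started a 60 min incubation at 26° C. Afterwards ADP-Glo reagents were added in turn and luminescence was measured to derive IC50 values.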

OVCAR 3 cells = assay: Cancer cell line proliferation assay, ATP-based cell viability (Cell Titre Glow), OVCAR 3 (CCNE1-amplified); settings: KYSE30 (normal CCNE1) GI50 vs. OVCAR 3 (CCNE1-amplified) GI50
Procedure, shortened: as §1

[2] = PKMYT1 kinase domain 15 nM, banded values
[3] = 15 nM PKMYT1 kinase domain, 500 µM ATP, 60 minutes at 26° C., banded
[4] = 15 nM WEE1, 60 minutes at 26° C., banded
[5] = banded, ">N" = at least in this band but could be higher

Row | Compound | IC50 (Human PKMYT1; [2]) | GI50 (KYSE-30 cells) | IC50 [1] | IC50 (WEE1; WEE1 15 nM, banded values) | PKMYT1 vs. WEE1 selectivity (WEE1; banded) | Selectivity ratio KYSE30 Gl50 vs. OVCAR3 Gl50 (OVCAR 3 cells) | IC50 (Human PKMYT1; [3]) | IC50 (WEE1; [4]) | PKMYT1 vs. WEE1 selectivity (WEE1; [5])
1 | Cc1cn(C(C)C(=O)N2CCCC2)nc1Nc1ncc(C(=O)Nc2c(C)ccc(O)c2C)s1 (stereo not drawn) [BAA-488, N-(3-hydroxy-2,6-dimethylphenyl)-2-((4-methyl-1-(1-oxo-1-(pyrrolidin-1-yl)propan-2-yl)-1H-pyrazol-3-yl)amino)thiazole-5-carboxamide] | < 0.05 µM | > 5 µM | < 0.1 µM | 1 to 11 µM | X (100-<1000 fold) | Y (>20 fold) |  |  | 
2 | Cc1ccc(O)c(C)c1NC(=O)c1cnc(Nc2ccccn2)s1 [BAA-421, N-(3-hydroxy-2,6-dimethylphenyl)-2-(pyridin-2-ylamino)thiazole-5-carboxamide] | < 0.05 µM | 0.5 to 5 µM | < 0.1 µM | > 11 µM | X (100-<1000 fold) | Y (>20 fold) |  |  | 
3 | Cc1cn(CC(=O)N2CCCC2(C)C)nc1Nc1ncc(C(=O)Nc2c(C)ccc(O)c2C)s1 [BAA-605, 2-((1-(2-(2,2-dimethylpyrrolidin-1-yl)-2-oxoethyl)-4-methyl-1H-pyrazol-3-yl)amino)-N-(3-hydroxy-2,6-dimethylphenyl)thiazole-5-carboxamide] | < 0.05 µM | > 5 µM | < 0.1 µM | 1 to 11 µM | X (100-<1000 fold) | Y (>20 fold) |  |  | 
4 | Cc1cn(CC(=O)N(C)C2CCC2)nc1Nc1ncc(C(=O)Nc2c(C)ccc(O)c2C)s1 [BAA-595, 2-((1-(2-(cyclobutyl(methyl)amino)-2-oxoethyl)-4-methyl-1H-pyrazol-3-yl)amino)-N-(3-hydroxy-2,6-dimethylphenyl)thiazole-5-carboxamide] | < 0.05 µM | > 5 µM | < 0.1 µM | 1 to 11 µM | X (100-<1000 fold) | Y (>20 fold) |  |  | 
5 | Cc1cc(Nc2ncc(C(=O)Nc3c(C)ccc(O)c3C)s2)nc(OCC(F)(F)F)n1 [BAA-319, N-(3-hydroxy-2,6-dimethylphenyl)-2-((6-methyl-2-(2,2,2-trifluoroethoxy)pyrimidin-4-yl)amino)thiazole-5-carboxamide] |  | 0.5 to 5 µM | < 0.1 µM |  |  | Y (>20 fold) | < 0.05 µM | > 11 µM | Y (1000-5000 fold)
6 | Cc1cn(-c2cnn(C)c2)nc1Nc1ncc(C(=O)Nc2c(C)ccc(O)c2C)s1 [BAA-385, 2-((1′′,4-dimethyl-1′H-[1,4′-bipyrazol]-3-yl)amino)-N-(3-hydroxy-2,6-dimethylphenyl)thiazole-5-carboxamide] |  | 0.5 to 5 µM | < 0.1 µM |  |  | Y (>20 fold) | < 0.05 µM | 1 to 11 µM | X (100-<1000 fold)
7 | Cc1ccc(O)c(C)c1NC(=O)c1cnc(Nc2cc(C(F)(F)F)cc(Cl)n2)s1 [BAA-321, 2-((6-chloro-4-(trifluoromethyl)pyridin-2-yl)amino)-N-(3-hydroxy-2,6-dimethylphenyl)thiazole-5-carboxamide] |  | > 5 µM | 0.1 to 1 µM |  |  | Y (>20 fold) | 0.05 to 1 µM | > 11 µM | X (100-<1000 fold)
8 | Cc1ccc(O)c(C)c1NC(=O)c1cnc(Nc2c3cccnc3nn2C)s1 [BAA-243, N-(3-hydroxy-2,6-dimethylphenyl)-2-((2-methyl-2H-pyrazolo[3,4-b]pyridin-3-yl)amino)thiazole-5-carboxamide] |  | > 5 µM | < 0.1 µM |  |  | X (3-20 fold) | < 0.05 µM | 1 to 11 µM | X (100-<1000 fold)

Source: US20260297042A1, “BIARYLAMIDE DERIVATIVES AND THEIR USE AS PKMYT1 INHIBITORS” (CANCER RESEARCH TECHNOLOGY LIMITED, priority 2023, published 2026)
